Results: US11141413B2, “Method of treating renal cell carcinoma using N-(4-(6,7-dimethoxyquinolin-4-yloxy)phenyl)-N′-(4-fluorophenyl)cyclopropane-1,1-dicarboxamide, (2S)-hydroxybutanedioate” (Exelixis, Inc., priority 2016, dated 2021)

Test system: patients with advanced renal cell carcinoma
Details: in vivo
Experimental: Treatment modifications, including interruptions and dose reductions, were allowed to manage adverse events. […] Patients were allowed to continue study treatment beyond radiographic progression at the discretion of the investigator. On-study crossover between treatment groups was not permitted. Safety evaluations, including physical examination, vital signs, and laboratory assessments, were conducted every 2 weeks for the first 8 weeks and then every 4 weeks thereafter. ECG assessments were performed every 4 weeks for the first 8 weeks and then every 12 weeks. A safety follow-up visit was scheduled 30 days after treatment discontinuation. Adverse events were assessed by investigators and graded according to CTCAE version 4.0.
Safety analyses were limited to patients who received any amount of study treatment.

`COc1cc2nccc(Oc3ccc(NC(=O)C4(C(=O)Nc5ccc(F)cc5)CC4)cc3)c2cc1OC` [cabozantinib] was tested, and the “Abdominal pain, Grade 1-2” value (human) was 48 (15) n (%), the “Abdominal pain, Grade 3” value (human) was 12 (4) n (%) and the “Abdominal pain, Grade 4” value (human) was 0 n (%). For the same compound, the “Alanine aminotransferase increased, Grade 1-2” value (human) was 47 (14) n (%), the “Alanine aminotransferase increased, Grade 3” value (human) was 7 (2) n (%) and the “Alanine aminotransferase increased, Grade 4” value (human) was 1 (<1) n (%). The “Anemia, Grade 1-2” value (human) was 42 (13) n (%), the “Anemia, Grade 3” value (human) was 19 (6) n (%) and the “Anemia, Grade 4” value (human) was 0 n (%). For the same compound, the “Any AE, Grade 1-2” value (human) was 70 (21) n (%), the “Any AE, Grade 3” value (human) was 210 (63) n (%) and the “Any AE, Grade 4” value (human) was 25 (8) n (%). For the same compound, the “Arthralgia, Grade 1-2” value (human) was 43 (13) n (%), the “Arthralgia, Grade 3” value (human) was 1 (<1) n (%) and the “Arthralgia, Grade 4” value (human) was 0 n (%). For the same compound, the “Aspartate aminotransferase increased, Grade 1-2” value (human) was 55 (17) n (%), the “Aspartate aminotransferase increased, Grade 3” value (human) was 5 (2) n (%) and the “Aspartate aminotransferase increased, Grade 4” value (human) was 0 n (%). The “Asthenia, Grade 1-2” value (human) was 49 (15) n (%), the “Asthenia, Grade 3” value (human) was 15 (5) n (%) and the “Asthenia, Grade 4” value (human) was 0 n (%). The “Back pain, Grade 1-2” value (human) was 54 (16) n (%), the “Back pain, Grade 3” value (human) was 8 (2) n (%) and the “Back pain, Grade 4” value (human) was 0 n (%). For the same compound, the “Blood creatinine increased, Grade 1-2” value (human) was 17 (5) n (%), the “Blood creatinine increased, Grade 3” value (human) was 1 (<1) n (%) and the “Blood creatinine increased, Grade 4” value (human) was 0 n (%). The “Constipation, Grade 1-2” value (human) was 89 (27) n (%), the “Constipation, Grade 3” value (human) was 1 (<1) n (%) and the “Constipation, Grade 4” value (human) was 0 n (%). For the same compound, the “Cough, Grade 1-2” value (human) was 67 (20) n (%), the “Cough, Grade 3” value (human) was 1 (<1) n (%) and the “Cough, Grade 4” value (human) was 0 n (%). For the same compound, the “Decreased appetite, Grade 1-2” value (human) was 146 (44) n (%), the “Decreased appetite, Grade 3” value (human) was 10 (3) n (%) and the “Decreased appetite, Grade 4” value (human) was 0 n (%). For the same compound, the “Diarrhea, Grade 1-2” value (human) was 206 (62) n (%), the “Diarrhea, Grade 3” value (human) was 43 (13) n (%) and the “Diarrhea, Grade 4” value (human) was 0 n (%). For the same compound, the “Diarrhea, all grades” value (human) was 249 (75%) n (%), the “Diarrhea, grade 3 or 4” value (human) was 43 [13%] n [%] and the “Discontinuation due to a primary reason of AE (excluding disease progression)” value (human) was 10%. The “Dizziness, Grade 1-2” value (human) was 41 (12) n (%), the “Dizziness, Grade 3” value (human) was 1 (<1) n (%) and the “Dizziness, Grade 4” value (human) was 0 n (%). For the same compound, the “Dry skin, Grade 1-2” value (human) was 37 (11) n (%), the “Dry skin, Grade 3” value (human) was 0 n (%) and the “Dry skin, Grade 4” value (human) was 0 n (%). For the same compound, the “Dysgeusia, Grade 1-2” value (human) was 80 (24) n (%), the “Dysgeusia, Grade 3” value (human) was 0 n (%) and the “Dysgeusia, Grade 4” value (human) was 0 n (%). The “Dyspepsia, Grade 1-2” value (human) was 40 (12) n (%), the “Dyspepsia, Grade 3” value (human) was 1 (<1) n (%) and the “Dyspepsia, Grade 4” value (human) was 0 n (%). The “Dysphonia, Grade 1-2” value (human) was 68 (21) n (%), the “Dysphonia, Grade 3” value (human) was 2 (<1) n (%) and the “Dysphonia, Grade 4” value (human) was 0 n (%). For the same compound, the “Dyspnoea, Grade 1-2” value (human) was 56 (17) n (%), the “Dyspnoea, Grade 3” value (human) was 10 (3) n (%) and the “Dyspnoea, Grade 4” value (human) was 0 n (%). For the same compound, the “Edema peripheral, Grade 1-2” value (human) was 39 (12) n (%), the “Edema peripheral, Grade 3” value (human) was 0 n (%) and the “Edema peripheral, Grade 4” value (human) was 0 n (%). The “Epistaxis, Grade 1-2” value (human) was 14 (4) n (%), the “Epistaxis, Grade 3” value (human) was 0 n (%) and the “Epistaxis, Grade 4” value (human) was 0 n (%). The “Fatigue, Grade 1-2” value (human) was 159 (48) n (%), the “Fatigue, Grade 3” value (human) was 36 (11) n (%) and the “Fatigue, Grade 4” value (human) was 0 n (%). The “Fatigue, all grades” value (human) was 195 (59%) n (%), the “Fatigue, grade 3 or 4” value (human) was 36 [11%] n [%] and the “Flatulence, Grade 1-2” value (human) was 33 (10) n (%). The “Flatulence, Grade 3” value (human) was 0 n (%), the “Flatulence, Grade 4” value (human) was 0 n (%) and the “Grade 3 and 4 adverse events: Hyperglycemia, %” value (human) was 1 (1) %. For the same compound, the “Grade 3 or 4 Adverse Events: Hypercalcemia (event of interest), %” value (human) was “(1) %”, the “Grade 3 or 4 Adverse Events: Hyperglycemia, %” value (human) was “(1) %” and the “Grade 3 or 4 Adverse Events: PPES, %” value (human) was “(8) %”. For the same compound, the “Grade 3 or 4 adverse events” value (human) was 235 (71%) n (%), the “Grade 5 adverse events regardless of causality” value (human) was 7.9% and the “Headache, Grade 1-2” value (human) was 43 (13) n (%). For the same compound, the “Headache, Grade 3” value (human) was 1 (<1) n (%), the “Headache, Grade 4” value (human) was 0 n (%) and the “Hyperglycemia, Grade 1-2” value (human) was 15 (5) n (%). The “Hyperglycemia, Grade 3” value (human) was 2 (<1) n (%), the “Hyperglycemia, Grade 4” value (human) was 1 (<1) n (%) and the “Hypertension, Grade 1-2” value (human) was 73 (22) n (%). For the same compound, the “Hypertension, Grade 3” value (human) was 49 (15) n (%), the “Hypertension, Grade 4” value (human) was 0 n (%) and the “Hypertension, grade 3 or 4” value (human) was 49 [15%] n [%]. For the same compound, the “Hypertriglyceridemia, Grade 1-2” value (human) was 17 (5) n (%), the “Hypertriglyceridemia, Grade 3” value (human) was 4 (1) n (%) and the “Hypertriglyceridemia, Grade 4” value (human) was 0 n (%). The “Hypomagnesaemia, Grade 1-2” value (human) was 38 (12) n (%), the “Hypomagnesaemia, Grade 3” value (human) was 6 (2) n (%) and the “Hypomagnesaemia, Grade 4” value (human) was 10 (3) n (%). The “Hypothyroidism, Grade 1-2” value (human) was 76 (23) n (%), the “Hypothyroidism, Grade 3” value (human) was 0 n (%) and the “Hypothyroidism, Grade 4” value (human) was 0 n (%). For the same compound, the “Insomnia, Grade 1-2” value (human) was 32 (10) n (%), the “Insomnia, Grade 3” value (human) was 0 n (%) and the “Insomnia, Grade 4” value (human) was 0 n (%). The “Mucosal inflammation, Grade 1-2” value (human) was 60 (18) n (%), the “Mucosal inflammation, Grade 3” value (human) was 5 (2) n (%) and the “Mucosal inflammation, Grade 4” value (human) was 0 n (%). For the same compound, the “Muscle spasms, Grade 1-2” value (human) was 45 (14) n (%), the “Muscle spasms, Grade 3” value (human) was 0 n (%) and the “Muscle spasms, Grade 4” value (human) was 0 n (%). The “Nausea, Grade 1-2” value (human) was 158 (48) n (%), the “Nausea, Grade 3” value (human) was 15 (5) n (%) and the “Nausea, Grade 4” value (human) was 0 n (%). For the same compound, the “Nausea, all grades” value (human) was 173 (52%) n (%), the “Overall incidence of adverse events regardless of causality” value (human) was 100% and the “Pain in extremity, Grade 1-2” value (human) was 46 (14) n (%). The “Pain in extremity, Grade 3” value (human) was 5 (2) n (%), the “Pain in extremity, Grade 4” value (human) was 0 n (%) and the “Palmar-plantar erythrodysaesthesia syndrome, Grade 1-2” value (human) was 115 (35) n (%). The “Palmar-plantar erythrodysaesthesia syndrome, Grade 3” value (human) was 27 (8) n (%), the “Palmar-plantar erythrodysaesthesia syndrome, Grade 4” value (human) was 0 n (%) and the “Patients with dose reductions” value (human) was 62%. For the same compound, the “Proteinuria, Grade 1-2” value (human) was 37 (11) n (%), the “Proteinuria, Grade 3” value (human) was 8 (2) n (%) and the “Proteinuria, Grade 4” value (human) was 0 n (%). The “Pruritus, Grade 1-2” value (human) was 27 (8) n (%), the “Pruritus, Grade 3” value (human) was 0 n (%) and the “Pruritus, Grade 4” value (human) was 0 n (%). The “Pyrexia, Grade 1-2” value (human) was 31 (9) n (%), the “Pyrexia, Grade 3” value (human) was 3 (<1) n (%) and the “Pyrexia, Grade 4” value (human) was 0 n (%). For the same compound, the “Rash, Grade 1-2” value (human) was 52 (16) n (%), the “Rash, Grade 3” value (human) was 2 (<1) n (%) and the “Rash, Grade 4” value (human) was 0 n (%). The “Serious adverse events ≥grade 3” value (human) was 130 (40%) n (%), the “Stomatitis, Grade 1-2” value (human) was 65 (20) n (%) and the “Stomatitis, Grade 3” value (human) was 8 (2) n (%). For the same compound, the “Stomatitis, Grade 4” value (human) was 0 n (%), the “Study treatment discontinuation due to diarrhea” value (human) was 0.9% and the “Treatment discontinuation due to an adverse event not related to disease progression” value (human) was 12%. For the same compound, the “Vomiting, Grade 1-2” value (human) was 106 (32) n (%), the “Vomiting, Grade 3” value (human) was 7 (2) n (%) and the “Vomiting, Grade 4” value (human) was 0 n (%). For the same compound, the “Weight decreased, Grade 1-2” value (human) was 105 (32) n (%), the “Weight decreased, Grade 3” value (human) was 9 (3) n (%) and the “Weight decreased, Grade 4” value (human) was 0 n (%). The “Grade 5 adverse events assessed as treatment-related” value was “One”.
